Like-named read-outs stand apart in the source and are kept apart here.
Target: T1, SIRT1 (Homo sapiens, UniProt Q96EB6)
T1 sequence (Q96EB6 1-747): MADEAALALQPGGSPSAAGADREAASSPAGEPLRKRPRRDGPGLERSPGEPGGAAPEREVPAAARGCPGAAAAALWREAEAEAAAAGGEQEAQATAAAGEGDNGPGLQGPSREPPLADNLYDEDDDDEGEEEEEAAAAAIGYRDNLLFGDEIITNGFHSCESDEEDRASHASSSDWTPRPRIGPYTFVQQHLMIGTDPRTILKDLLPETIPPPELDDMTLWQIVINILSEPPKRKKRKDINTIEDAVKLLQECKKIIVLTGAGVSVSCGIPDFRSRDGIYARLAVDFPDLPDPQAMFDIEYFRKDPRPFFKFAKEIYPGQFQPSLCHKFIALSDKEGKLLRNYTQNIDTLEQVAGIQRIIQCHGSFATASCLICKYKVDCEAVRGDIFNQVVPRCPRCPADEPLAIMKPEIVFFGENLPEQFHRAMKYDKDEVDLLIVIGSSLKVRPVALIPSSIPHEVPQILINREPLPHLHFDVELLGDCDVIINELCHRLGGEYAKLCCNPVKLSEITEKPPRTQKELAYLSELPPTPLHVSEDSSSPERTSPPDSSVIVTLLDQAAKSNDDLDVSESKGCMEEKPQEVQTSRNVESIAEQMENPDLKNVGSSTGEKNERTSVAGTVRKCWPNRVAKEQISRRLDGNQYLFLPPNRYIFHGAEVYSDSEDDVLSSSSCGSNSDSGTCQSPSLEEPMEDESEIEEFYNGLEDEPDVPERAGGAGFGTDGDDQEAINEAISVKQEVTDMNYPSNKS
Assay: Trp mass spectrometry assay of SIRT1 activation (Ac-R-H-K-K(Ac)-W-NH2 peptide)
Assay type: biochemical
Settings: for Emax: 25 min, read-out: TRP MAX RESP (percent maximum fold activation)
Procedure, shortened: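 N-terminal His-tagged human SIRT1, expressed in BL21(DE3) and purified, was incubated 25 min with an acetylated Trp peptide and NAD plus test compound at varying concentrations, then quenched with formic acid. OAADPR or deacetylated peptide was quantified by mass spectrometry versus compound-free control; EC1.5 is the concentration giving 50% activity increase, with percent maximum activation.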

[1] = Trp peptide 0.5 μM, 120 μM βNAD+, 10 nM SIRT1, 25 min at 25° C., relative to control (100%)
[2] = Trp peptide 0.5 μM, 120 μM βNAD+, 10 nM SIRT1, 25 min at 25° C.

Compound | Emax [1] | TRP Activity (EC1.5, concentration of test compound that results in 150% activation of SIRT1) [2] | Emax
C[C@@H](NC(=O)c1ccc2c(n1)N(C(=O)Nc1ccc(OC[C@H](O)CO)cn1)[C@H]1CCN2C1)C(F)(F)F [Example 149, (4S)—N5-(5-((R)-2,3-dihydroxypropoxy)pyridin-2-yl)-N7-((R)-1,1,1-trifluoropropan-2-yl)-3,4-dihydro-1,4-methanopyrido[2,3-b][1,4]diazepine-5,7(2H)-dicarboxamide] | > 150% | A (EC1.5<1 μM) | 
C[C@@H](NC(=O)c1ccc2c(n1)N(C(=O)Nc1ncc(OC[C@@H](O)CO)cn1)[C@H]1CCN2C1)C(F)(F)F [Example 177, (4S)—N5-(5-((S)-2,3-dihydroxypropoxy)pyrimidin-2-yl)-N7-((R)-1,1,1-trifluoropropan-2-yl)-3,4-dihydro-1,4-methanopyrido[2,3-b][1,4]diazepine-5,7(2H)-dicarboxamide] | > 150% | B (EC1.5 1-25 μM) | 
Cc1c[nH]c2nc(NC(=O)N3c4nc(C(=O)NCC(F)(F)F)ccc4N4CC[C@H]3C4)ncc12 [Example 176, (4S)—N5-(5-methyl-7H-pyrrolo[2,3-d]pyrimidin-2-yl)-N7-(2,2,2-trifluoroethyl)-3,4-dihydro-1,4-methanopyrido[2,3-b][1,4]diazepine-5,7(2H)-dicarboxamide] |  | A (EC1.5<1 μM) | > 150%
NC(CNC(=O)c1ccc2c(n1)N(C(=O)Nc1cc(OC[C@H](O)CO)ccn1)[C@H]1CCN2C1)C(F)(F)F (single isomer, unassigned) [Example 196] | > 150% | B (EC1.5 1-25 μM) | 
O=C(NCC(F)(F)F)c1ccc2c(n1)N(C(=O)Nc1ncc3[nH]ccc3n1)[C@H]1CCN2C1 [Example 140, (4S)—N5-(5H-pyrrolo[3,2-d]pyrimidin-2-yl)-N7-(2,2,2-trifluoroethyl)-3,4-dihydro-1,4-methanopyrido[2,3-b][1,4]diazepine-5,7(2H)-dicarboxamide] |  | A (EC1.5<1 μM) | > 150%
O=C(NCC(F)F)c1ccc2c(n1)N(C(=O)Nc1ccc(F)cn1)[C@H]1CCN2C1 [Example 69, (4S)—N7-(2,2-difluoroethyl)-N5-(5-fluoropyridin-2-yl)-3,4-dihydro-1,4-methanopyrido[2,3-b][1,4]diazepine-5,7(2H)-dicarboxamide] |  | A (EC1.5<1 μM) | > 150%
O=C(NC1CCCOC1)c1ccc2c(n1)N(C(=O)Nc1ccccn1)[C@H]1CCN2C1 (stereo partly drawn) [Example 5, (4S)—N-5-(pyridin-2-yl)-N-7-(tetrahydro-2H-pyran-3-yl)-3,4-dihydro-1,4-methanopyrido [2,3-b] [1, 4] diazepine-5, 7(2H)-dicarboxamide] | > 150% | B (EC1.5 1-25 μM) | 
Cc1ccc2c(NC(=O)N3c4nc(C(=O)NC5CC5(F)F)ccc4N4CC[C@H]3C4)n[nH]c2n1 (single isomer, unassigned) [Example 65] | > 150% | A (EC1.5<1 μM) | 
C[C@@H](NC(=O)c1ccc2c(n1)N(C(=O)Nc1cc(OCCO)ccn1)[C@H]1CCN2C1)C(F)(F)F [Example 132, (4S)—N5-(4-(2-hydroxyethoxy)pyridin-2-yl)-N7-((R)-1,1,1-trifluoropropan-2-yl)-3,4-dihydro-1,4-methanopyrido[2,3-b][1,4]diazepine-5,7(2H)-dicarboxamide] | > 150% | A (EC1.5<1 μM) | 
O=C(NC1CCCCC1)c1ccc2c(n1)N(C(=O)Nc1ccccn1)[C@H]1CCN2C1 [Example 27, (4S)—N7-cyclohexyl-N5-(pyridin-2-yl)-3,4-dihydro-1,4-methanopyrido[2,3-b][1,4]diazepine-5,7(2H)-dicarboxamide] |  | A (EC1.5<1 μM) | > 150%
NCC(NC(=O)c1ccc2c(n1)N(C(=O)Nc1ccccn1)[C@H]1CCN2C1)C(F)(F)F (single isomer, unassigned) [Example 223] | > 150% | B (EC1.5 1-25 μM) | 
COCC(O)CNC(=O)c1ccc2c(n1)N(C(=O)Nc1ccccn1)[C@H]1CCN2C1 (single isomer, unassigned) [Example 214] | > 150% | B (EC1.5 1-25 μM) | 
O=C(NCC(F)(F)F)c1ccc2c(n1)N(C(=O)Nc1ccccn1)[C@H]1CCN2C1 [Example 1] | > 150% | A (EC1.5<1 μM) | 

Second part, led by results:

Emax [1] | TRP Activity (EC1.5, concentration of test compound that results in 150% activation of SIRT1) [2] | Compound | Emax
> 150% | B (EC1.5 1-25 μM) | O=C(NC1CCOCC1)c1ccc2c(n1)N(C(=O)Nc1ccccn1)[C@H]1CCN2C1 [Example 4, (4S)—N-5-(pyridin-2-yl)-N-7-(tetrahydro-2H-pyran-4-yl)-3,4-dihydro-1,4-methanopyrido [2,3-b] [1, 4] diazepine-5, 7(2H)-dicarboxamide] | 
> 150% | A (EC1.5<1 μM) | O=C(NCC(F)(F)F)c1nc2c(cc1O)N1CC[C@@H](C1)N2C(=O)Nc1ccccn1 [Example 285, (4S)-8-hydroxy-N5-(pyridin-2-yl)-N7-(2,2,2-trifluoroethyl)-3,4-dihydro-1,4-methanopyrido[2,3-b][1,4]diazepine-5,7(2H)-dicarboxamide] | 
> 150% | A (EC1.5<1 μM) | CC(C#N)NC(=O)c1ccc2c(n1)N(C(=O)Nc1ccccn1)[C@H]1CCN2C1 (single isomer, unassigned) [Example 102] | 
> 150% | A (EC1.5<1 μM) | O=C(NCC(F)(F)F)c1ccc2c(n1)N(C(=O)Nc1cc(-c3cnco3)ccn1)[C@H]1CCN2C1 [Example 83, (4S)—N5-(4-(oxazol-5-yl)pyridin-2-yl)-N7-(2,2,2-trifluoroethyl)-3,4-dihydro-1,4-methanopyrido[2,3-b][1,4]diazepine-5,7(2H)-dicarboxamide] | 
> 150% | A (EC1.5<1 μM) | CC(C)[C@@H](C)NC(=O)c1ccc2c(n1)N(C(=O)Nc1ccc(F)cn1)[C@H]1CCN2C1 [Example 80, (4S)—N5-(5-fluoropyridin-2-yl)-N7-((R)-3-methylbutan-2-yl)-3,4-dihydro-1,4-methanopyrido[2,3-b][1,4]diazepine-5,7(2H)-dicarboxamide] | 
> 150% | A (EC1.5<1 μM) | O=C(NC1CC1(F)F)c1ccc2c(n1)N(C(=O)Nc1cc(OC[C@H](O)CO)ccn1)[C@H]1CCN2C1 (single isomer, unassigned) [Example 245] | 
> 150% | A (EC1.5<1 μM) | C[C@@H](NC(=O)c1ccc2c(n1)N(C(=O)Nc1cc3nc[nH]c3cn1)[C@H]1CCN2C1)C(F)(F)F [Example 192, (4S)—N5-(3H-imidazo[4,5-c]pyridin-6-yl)-N7-((R)-1,1,1-trifluoropropan-2-yl)-3,4-dihydro-1,4-methanopyrido[2,3-b][1,4]diazepine-5,7(2H)-dicarboxamide] | 
> 150% | B (EC1.5 1-25 μM) | O=C(NCc1cscn1)c1ccc2c(n1)N(C(=O)Nc1cc(OC[C@H](O)CO)ccn1)[C@H]1CCN2C1 [Example 199, (4S)—N5-(4-((R)-2,3-dihydroxypropoxy)pyridin-2-yl)-N7-(thiazol-4-ylmethyl)-3,4-dihydro-1,4-methanopyrido[2,3-b][1,4]diazepine-5,7(2H)-dicarboxamide] | 
> 150% | A (EC1.5<1 μM) | C[C@@H](NC(=O)c1ccc2c(n1)N(C(=O)Nc1cc3cc[nH]c3cn1)[C@H]1CCN2C1)C(F)(F)F [Example 181, (4S)—N5-(1H-pyrrolo[2,3-c]pyridin-5-yl)-N7-((R)-1,1,1-trifluoropropan-2-yl)-3,4-dihydro-1,4-methanopyrido[2,3-b][1,4]diazepine-5,7(2H)-dicarboxamide] | 
> 150% |  | Cc1ccc2c(NC(=O)N3c4nc(C(=O)NC[C@@H](N)C(F)(F)F)ccc4N4CC[C@H]3C4)n[nH]c2n1 (single isomer, unassigned) [Example 233] | 

From patent US10072011B2, “Substituted bridged urea analogs as sirtuin modulators” (GlaxoSmithKline Intellectual Property (No.2) Limited, priority 2014, dated 2018)
